From patent publication US20030087243A1, “Diagnosis, prognosis and treatment of cancer related to the Barx2 gene” (priority 1999, published 2003)

Assays:
Assay type in all cases: cell-based, human
[1] = system: Barx2; test: Azacytidine demethylation, Barx2 re-expression in OAW42; details: OAW42, 96 hours, 0.5 μM azacytidine
Description: OAW42 was exposed to 5-azacytidine for 96 hours at different concentrations. […] Feint expression is seen for barx2 in OAW42 control, but strong induction of barx2 expression is seen at 0.5 μM azacytidine relative to actin signal.
OAW42 was exposed to 5-azacytidine for 96 hours at different concentrations.

[2] = system: PEO1CDDP; test: Growth (cell counts) of PEO1CDDP transfectant clones exposed to cisplatinum; details: day 13
Description: We tested whether the introduction of Barx2 into PEO1CDDP altered its sensitivity to cisplatinum. 25000 cells were plated. Two days later, varying concentrations of cisplatinum were applied for 3 days, and then removed. Refeeding of the cells was performed every three days until day 13 with cell counts performed every three days.
CH1.1 is a control PEO1CDDP derivative clone that has been transfected with the pBabe Hygro empty vector (the same vector into which BarX2 was cloned) and behave as the parent line. CB3.6 is a BarX2 transfected growth suppressed clone. Both are exposed to increasing concentrations of cisplatinum.
The result of this experiment is seen particularly at the 1 μM cisplatinum concentration. Compared with no cisplatinum, the control cell line grows to 85% control at 1 μM cisplatinum at day 13. At the same timepoint and concentration of platinum, the BarX2 transfected platinum resistant cell line grows to only 69% of control. This increase in platinum sensitivity (or reduction in resistance) upon BarX2 transfection is consistent with the observed aberrant expression of the 5′ BarX2 transcript noted by RT-PCR in the PEO series of cell lines. Whether BarX2 induces sensitivity, reduces resistance, or both is not understood and the underlying mechanism is currently being explored.

[3] = system: PEO1 CDDP cell line; test: Cisplatin resistance of PEO1 CDDP cell line relative to PEO1; details: developed by exposing PEO1 to cisplatinum in vitro
Description: (§1) In FIG. 4, the 5′ end (F1R1) and the 3′ end (F3R3) of the BarX2 transcript are amplified by RT-PCR using the primers given. PEO1, PEO4, PEO6 and PEOCDDP are four cell lines derived from a patient with ovarian cancer. […] Another cell line PEO4 was derived from the same patient when they relapsed again after treatment with high dose cisplatin chemotherapy in vivo. This cell line is approx four-fold resistant relative to PEO1.

[4] = system: PEO4; test: Cisplatin resistance of PEO4 cell line relative to PEO1; details: PEO4, derived after relapse following high dose cisplatin in vivo
Description: as §1

[5] = system: PEO1CDDP; test: 12 day growth inhibition assay with cisplatin, PEO1CDDP with and without Barx2 transfection; details: across the cisplatin concentration range
[6] = system: PEO1; test: 12 day growth inhibition assay with cisplatin, PEO1 with and without Barx2 transfection; details: PEO1, across the cisplatin concentration range
Description: (§2) Transfection of BARX2 into OVCAR3, OAW42, PEO1 and PEO1-CDDP suppresses cell growth. In OAW42, this is accompanied by suppression of matrigel invasion, cell migration and adhesion and partial G1/S-phase block. […] This is consistent with recent thinking for molecular mechanisms of cytotoxicity in clinical cancer, and clonogenic assays are shown in FIG. 35.

[7] = system: PEO1CDDP transfectant cell lines; test: Clonogenic assay of PEO1CDDP transfectants after cisplatinum exposure; details: CB1.3, CB3.6 vs CH1.1, CH2.2; 3 day exposure, 1.0 μM cisplatinum; p<0.0001
Description: FIG. 35. The PEO1CCDP pBABE Hygromycin control transfectant cell lines CH1.1 and CH2.2, and the PEO1CDDP pBABE BARX2 transfectant cell lines CB1.3 and CB3.6, were assayed for survival at day 12 following 3 day exposure to 0 μM, 1.0 μM and 2.0 μM cisplatinum in a clonogenic assay.

[8] = system: PEO1 cisplatin sensitive and resistant cell lines; test: Annexin-V-FACS apoptosis after cisplatin
Description: Flow-cytometric detection of phosphatidylserine expression in cell lines and MHCs was performed according to the manufacturer's method using the Fluorescein labelled Annexin-V Apoptosis Detection Kit (R&D systems) (Vermes et al, 1995). The measure of early apoptosis derives from the assessment of the proportion of Annexin-V positives Propidium Iodide negative cells.
as §2

Row | Compound | induction of Barx2 expression [1] | growth compared with no cisplatinum ([2]; BarX2 transfected clone CB3.6, 1 μM cisplatinum for 3 days) [%] | growth compared with no cisplatinum ([2]; control clone CH1.1 (pBabe Hygro empty vector), 1 μM cisplatinum for 3 days) [%] | resistance to cisplatin relative to PEO1 [3] [fold] | resistance relative to PEO1 [4] | increase of platinum sensitivity by Barx2 transfection [5] | change of sensitivity to cisplatin as a result of Barx2 transfection [6] | increase in platinum sensitivity following BARX2 transfection (survival at day 12) [7] | apoptosis, sensitive versus resistant cell lines ([8]; 1.5 or 5 micromolar cisplatin, between 1 hr and 40 hr) | apoptosis in response to cisplatin in BARX2 transfected cells ([8]; BARX2 transfected PEO1 and PEO1-CDDP)
1 | Nc1ncn([C@@H]2O[C@H](CO)[C@@H](O)[C@H]2O)c(=O)n1 [5-azacytidine] | Clear induction | – | – | – | – | – | – | – | – | –
2 | N.N.[Cl][Pt][Cl] [cisplatin] | – | 69 | 85 | 18 | approx four | six | not significantly altered | statistically significant | no significant differences | no increase in apoptosis
